According to EP2067861A1, “Animals of the rattus genus wherein msh6 expression is functionally decreased and methods for the generation of specific mutants therefrom” (Koninklijke Nederlandse Akademie van Wetenschappen, priority 2007, dated 2009):
Several values for one entry are separate records, joined by “and”; a condition that tells them apart may be missing. Equal values may be shown once.

Key:
wild-type males = test: Survival of ENU treated wild-type males (previous studies); format: in vivo, rat; settings: unpublished data
Description: (§1) The efficiency of ENU is dependent of the dose, reflected by a higher mutagenicity after three weekly administrations of low doses of the mutagen compared to a single high-dose injection (Justice et al. (2000) Mamm Genome 11, 484-8). Furthermore it has been shown that higher ENU concentrations increase the mutation frequency (Smits et al. (2004) Pharmacogenet Genomics 16, 159-69; Smits and Cuppen (2006) Trends Genet. 22, 232-40). To determine the optimal ENU concentration we performed an ENU dose-response experiment and determined the fertility of the founders. At 12 weeks of age msh6^-/- males were treated with 3 weekly doses of different concentrations of the mutagen. Fertility was determined after a full cycle of spermatogenesis (± 10 weeks) by breeding and/or histological analysis of the testes. At concentrations of 35, 30 and 25 mg/kg, respectively 1/8, 5/8 and 4/6 males were fertile (Table 5). Compared to earlier studies, where at 40 and 35 mg/kg ENU respectively 6/10 and 10/10 rats are fertile (Smits and Cuppen (2006) Trends Genet. 22, 232-40), this is a considerable decrease. It is known that MSH6 deficiency reduces lifespan in both rats (van Boxtel et al. (2007) submitted) and mice (Edelmann (1997) Cell 91, 467-77) as a result of tumor development. MSH6 deficiency increased ENU sensitivity not only in fertility, but also in survival. […]

wild-type rats = settings: cited from earlier work
Control = Control 3 x 40 mg/kg ENU, cited from earlier work
msh6^-/- males = test: ENU dose-response experiment: fertility of treated founder males; format: in vivo, rat
Experimental: All experiments were approved by the Animal Care Committee of the Royal Dutch Academy of Science according to the Dutch legal ethical guidelines. Experiments were designed to minimize the number of required animals and their suffering. Male MSH6 knockout rats (Msh6^1Hubr) of 12 weeks of age were given three weekly intraperitoneal injections of 25, 30 and 35 mg/kg bodyweight ENU. Preparation of ENU (Isopac; Sigma) was done as decribed (for detailed description, see (Smits et al. (2006) Pharmacogenet Genomics 16, 159-69) After the treatment the injected males were monitored for fertility by breeding with one or two females. Pups from these early matings were counted, but not analyzed. Ten weeks after the last injection, fertile males of the highest-dosed fertile group were kept on a weekly breeding scheme with two females to produce F1 progeny for mutational analysis. Animals were housed under standard conditions in groups of two to three per cage per gender under controlled experimental conditions (12-h light/dark cycle, 21±1°C, 60% relative humidity, food and water ad libitum).
as §1, with “survival. Whereas untreated msh6^-/- rats show a median survival of 14 months, this is reduced in the ENU treated males to an average mean of 37 ± 3 weeks (∼ 8 months) and no male was alive after 50 weeks of age (Figure 5). This decrease in lifespan was due to the development of tumors, mainly lymphomas (data not shown).” for “survival.”

[1] = 362 pups, 37,27 x 10^6 bases screened

CCN(N=O)C(N)=O [ENU, N-ethyl-N-nitrosourea]
survived till 1,5 years of age (wild-type males; 35 mg/kg bodyweight ENU): 9 out of 10 | survived till 1,5 years of age (wild-type males; 40 mg/kg bodyweight ENU): 10 out of 10 | rats fertile (wild-type rats; 35 mg/kg ENU, earlier studies (Smits and Cuppen 2006)): 10/10 | # Fertile males (wild-type rats; Control 3 x 40 mg of ENU per kg bodyweight, 10 males injected): 6/10 and 6 | # Mutations - nonsense (Control; [1]): 0 | # Mutations - total (Control; [1]): 30 | # Mutations - missense (Control): 17 | # Mutations - non-coding (Control): 6 | # Mutations - silent (Control): 7 | Mutation Frequencies (Control; highest ENU-induced mutation frequency in rats): 8.05 x 10^-7 | # Fertile males (msh6^-/- males; MSH6^-/- 3 x 25 mg of ENU per kg bodyweight (three weekly injections), 6 males injected, testes histology and/or at least one litter 10 weeks after last injection): 4/6 and 4 | # Fertile males (msh6^-/- males; MSH6^-/- 3 x 30 mg of ENU per kg bodyweight (three weekly injections), 8 males injected): 5/8 and 5 | # Fertile males (msh6^-/- males; MSH6^-/- 3 x 35 mg of ENU per kg bodyweight (three weekly injections), 8 males injected): 1/8 and 1 | # Fertile males (msh6^-/- males; MSH6^-/- Total of the three dose groups, 24 males injected as printed): 10
